{"source": "patent US20250032623A1", "about": "“HETEROBIFUNCTIONAL COMPOUNDS AND THEIR USE IN TREATING DISEASE” (HALDA THERAPEUTICS OPCO, INC., priority 2021, published 2025)", "key": {"KRAS G12C": {"molecular_target": "T1, KRAS G12C (Homo sapiens, UniProt P01116, G12C)", "T1 construct": "Kras (aa 2-169), GST; purchased Reaction Biology Corporation (RBC)", "T1 sequence (P01116 2-169 isoform P01116-2 G12C)": "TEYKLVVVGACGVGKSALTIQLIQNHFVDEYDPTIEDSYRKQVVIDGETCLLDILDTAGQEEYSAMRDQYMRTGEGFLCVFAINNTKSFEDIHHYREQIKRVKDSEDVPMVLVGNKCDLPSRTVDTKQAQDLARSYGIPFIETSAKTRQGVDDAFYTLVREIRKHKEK", "experiment": "KRAS G12C nucleotide exchange assay (SOS1 mediated, HTRF)", "assay_type": "biochemical", "details": "1 hr pre-incubation at RT, read-out: IC50 (inhibition of KRas G12C)", "method": "Exemplary compounds were tested for ability to inhibit KRas G12C.\nKRAS target engagement (IC50 determination) was performed using a KRAS G12C nucleotide exchange assay (Reaction Biology Corporation). Specifically, compounds were tested against KRAS G12C in 10-point concentration IC50 mode with 3-fold serial dilution at a starting concentration of 10 μM. ARS1620 was used as a control. Compounds were pre-incubated with protein for 1 hr at RT. Parameters for the assay were:\nIn the method, Kras was mixed with a-GST Tb antibody (1.5× solution) and […] was delivered to reaction wells. Compounds were delivered using acoustic dispenser (Echo, Labcyte). Kras/aGST-Tb Ab/compound mixture was incubated for 1 hour at room temperature. A 3× solution of SOS1 and GTP* was prepared in reaction buffer. A […] aliquot of SOS1/GTP* solution was added to reaction well to initiate the exchange reaction. No—SOS1 reaction or max compound concentration was used as blank. IC50 determination was performed using a Sigmoidal dose response (variable slope) equation."}, "HEK293 cells": {"system": "HEK293 cells", "experiment": "Cellular growth inhibition assay (CellTiter-Glo), HEK293 cells", "assay_type": "cell-based", "details": "Homo sapiens, 72 h, three days compound treatment, CellTiter-Glo 2.0, read-out: CTG HEK293 GI50", "summary_of_the_method": "(§1)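 GI50 derived by four-parameter regression of luminescence (CellTiter-Glo 2.0) at Day 0 and Day 3, normalized to DMSO wells. Cells (HeLa, HEK293; 500/well, DMEM plus 10% FBS) were dosed with compound dilutions 24 h post-seeding and exposed for three days at 37 °C.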"}, "HeLa cells": {"system": "HeLa cells", "experiment": "Cellular growth inhibition assay (CellTiter-Glo), HeLa cells", "assay_type": "cell-based", "details": "Homo sapiens, 72 h, three days compound treatment, CellTiter-Glo 2.0, read-out: CTG HELA GI50", "summary_of_the_method": "as §1"}}, "data": [{"smiles": "C=C(F)C(=O)N1CCN(c2nc(OCC3CCCN3CCOCCOCCOCCOCCOCCOCCOCCOCCNC(=O)c3cccc(-c4ccc5c(N6CCOCC6C)nc(N6CCOCC6C)nc5n4)c3)nc3c2CCN(c2cccc4cccc(Cl)c24)C3)CC1CC#N", "note": "[Compound I-21, 3-[2,4-bis[(3R)-3-methylmorpholin-4-yl]pyrido[2,3-d]pyrimidin-7-yl]-N-[2-[2-[2-[2-[2-[2-[2-[2-[2-[(2S)-2-[[7-(8-chloro-1-naphthyl)-4-[(3S)-3-(cyanomethyl)-4-(2-fluoroprop-2-enoyl)piperazin-1-yl]-6,8-dihydro-SH-pyrido[3,4-d]pyrimidin-2-yl]oxymethyl]pyrrolidin-1-yl]ethoxy]ethoxy]ethoxy]ethoxy]ethoxy]ethoxy]ethoxy]ethoxy]ethyl]benzamide]", "values": [{"measurement": "IC50", "setting": "KRAS G12C", "result": "100 to 1000", "unit": "nM"}]}, {"smiles": "C=C(F)C(=O)N1CCN(c2nc(OC[C@@H]3CCCN3CCOCCOCCNC(=O)c3ccc(Nc4ncc5c(n4)N(C4CCCC4)[C@H](CC)C(=O)N5C)c(OC)c3)nc3c2CCN(c2cccc4cccc(Cl)c24)C3)C[C@@H]1CC#N", "note": "[Compound I-63, N-(2-(2-(2-((S)-2-(((7-(8-chloronaphthalen-1-yl)-4-((S)-3-(cyanomethyl)-4-(2-fluoroacryloyl)piperazin-1-yl)-5,6,7,8-tetrahydropyrido[3,4-d]pyrimidin-2-yl)oxy)methyl)pyrrolidin-1-yl)ethoxy)ethoxy)ethyl)-4-(((R)-8-cyclopentyl-7-ethyl-5-methyl-6-oxo-5,6,7,8-tetrahydropteridin-2-yl)amino)-3-methoxybenzamide]", "values": [{"measurement": "IC50", "setting": "KRAS G12C", "result": "< 100", "unit": "nM"}]}, {"smiles": "C=C(F)C(=O)N1CCN(c2nc(OC[C@@H]3CCCN3CCOCCOCCOCCOCCOCCOCCNC(=O)c3ccc(Nc4ncc5c(n4)N(C4CCCC4)[C@H](CC)C(=O)N5C)c(OC)c3)nc3c2CCN(c2cccc4cccc(Cl)c24)C3)C[C@@H]1CC#N", "note": "[Compound I-65, N-[2-[2-[2-[2-[2-[2-[2-[(2S)-2-[[7-(8-chloro-1-naphthyl)-4-[(3S)-3-(cyanomethyl)-4-(2-fluoroprop-2-enoyl)piperazin-1-yl]-6,8-dihydro-5H-pyrido1[3,4-d]pyrimidin-2-yl]oxymethyl]pyrrolidin-1-yl]ethoxy]ethoxy]ethoxy]ethoxy]ethoxy]ethoxy]ethyl]-4-[1[(7R)-8-cyclopentyl-7-ethyl-5-methyl-6-oxo-7H-pteridin-2-yl]amino]-3-methoxy-benzamide]", "values": [{"measurement": "IC50", "setting": "KRAS G12C", "result": "100 to 1000", "unit": "nM"}]}, {"smiles": "Cc1ccnc(C(C)C)c1-n1c(=O)nc(N2CCN(C(=O)/C=C/CN(C)CCOCCOCCOCCOCCOCCOCCON(C)C(=O)N3N=C(c4cc(F)ccc4F)SC3(CCCN)c3ccccc3)C[C@@H]2C)c2cc(F)c(-c3c(O)cccc3F)nc21", "note": "(stereo partly shown) [Compound I-77]", "values": [{"measurement": "IC50", "setting": "KRAS G12C", "result": "1000 to 5000", "unit": "nM"}]}, {"smiles": "CN(C/C=C/C(=O)N1CCN(c2nc(OC[C@@H]3CCCN3C)nc3c2CCN(c2cccc4cccc(Cl)c24)C3)C[C@@H]1CC#N)CCOCCOCCOCCOCCOCCOCCON(C)C(=O)N1N=C(c2cc(F)ccc2F)SC1(CCCN)c1ccccc1", "note": "(stereo partly shown) [Compound I-78]", "values": [{"measurement": "IC50", "setting": "KRAS G12C", "result": "< 100", "unit": "nM"}, {"measurement": "GI50", "setting": "HEK293 cells", "result": "500 to 1500", "unit": "nM"}, {"measurement": "GI50", "setting": "HeLa cells", "result": "< 500", "unit": "nM"}]}, {"smiles": "Cc1ccnc(C(C)C)c1-n1c(=O)nc(N2CCN(C(=O)/C=C/CN(C)CCOCCOCCOCCOCCOCCOCCOCCOCCON(C)C(=O)N3N=C(c4cc(F)ccc4F)SC3(CCCN)c3ccccc3)C[C@@H]2C)c2cc(F)c(-c3c(O)cccc3F)nc21", "note": "(stereo partly shown) [Compound I-79]", "values": [{"measurement": "IC50", "setting": "KRAS G12C", "result": "1000 to 5000", "unit": "nM"}]}, {"smiles": "CN(C/C=C/C(=O)N1CCN(c2nc(OC[C@@H]3CCCN3C)nc3c2CCN(c2cccc4cccc(Cl)c24)C3)C[C@@H]1CC#N)CCOCCOCCOCCOCCOCCOCCOCCOCCON(C)C(=O)N1N=C(c2cc(F)ccc2F)SC1(CCCN)c1ccccc1", "note": "(stereo partly shown) [Compound I-80]", "values": [{"measurement": "IC50", "setting": "KRAS G12C", "result": "< 100", "unit": "nM"}, {"measurement": "GI50", "setting": "HEK293 cells", "result": "500 to 1500", "unit": "nM"}, {"measurement": "GI50", "setting": "HeLa cells", "result": "< 500", "unit": "nM"}]}, {"smiles": "CC[C@@H]1C(=O)N(C)c2cnc(Nc3ccc(C(=O)NCCOCCN4CCN(C/C=C/C(=O)N5CCN(c6nc(OC[C@@H]7CCCN7C)nc7c6CCN(c6cccc8cccc(Cl)c68)C7)C[C@@H]5CC#N)CC4)cc3OC)nc2N1C1CCCC1", "note": "[Compound I-82]", "values": [{"measurement": "IC50", "setting": "KRAS G12C", "result": "< 100", "unit": "nM"}, {"measurement": "GI50", "setting": "HEK293 cells", "result": "< 500", "unit": "nM"}, {"measurement": "GI50", "setting": "HeLa cells", "result": "< 500", "unit": "nM"}]}, {"smiles": "CN(C/C=C/C(=O)N1CCN(c2nc(OC[C@@H]3CCCN3C)nc3c2CCN(c2cccc4cccc(Cl)c24)C3)C[C@@H]1CC#N)CCOCCOCCOCCOCCON(C)C(=O)N1N=C(c2cc(F)ccc2F)SC1(CCCN)c1ccccc1", "note": "(stereo partly drawn) [Compound I-96, 2-(3-aminopropyl)-N-[2-[2-[2-[2-[2-[[(E)-4-[(2S)-4-[7-(8-chloro-1-naphthyl)-2-[[(2S)-1-methylpyrrolidin-2-yl]methoxy]-6,8-dihydro-5H-pyrido[3,4-d]pyrimidin-4-yl]-2-(cyanomethyl)piperazin-1-yl]-4-oxo-but-2-enyl]-methylamino]ethoxy]ethoxy]ethoxy]ethoxy]ethoxy]-5-(2,5-difluorophenyl)-N-methyl-2-phenyl-1,3,4-thiadiazole-3-carboxamide]", "values": [{"measurement": "IC50", "setting": "KRAS G12C", "result": "< 100", "unit": "nM"}]}, {"smiles": "C=C(F)C(=O)N1CCN(c2nc(OC[C@@H]3CCCN3CCCN(C)C(=O)N3N=C(c4cc(F)ccc4F)S[C@@]3(CCCN)c3ccccc3)nc3c2CCN(c2cccc4cccc(Cl)c24)C3)C[C@@H]1CC#N", "note": "[Compound I-97, (2S)-2-(3-aminopropyl)-N-[3-[(2S)-2-[[7-(8-chloro-1-naphthyl)-4-[(3S)-3-(cyanomethyl)-4-(2-fluoroprop-2-enoyl)piperazin-1-yl]-6,8-dihydro-SH-pyrido[3,4-d]pyrimidin-2-yl]oxymethyl]pyrrolidin-1-yl]propyl]-5-(2,5-difluorophenyl)-N-methyl-2-phenyl-1,3,4-thiadiazole-3-carboxamide]", "values": [{"measurement": "IC50", "setting": "KRAS G12C", "result": "< 100", "unit": "nM"}, {"measurement": "GI50", "setting": "HeLa cells", "result": "500 to 1500", "unit": "nM"}]}, {"smiles": "C=C(F)C(=O)N1CCN(c2nc(OC[C@@H]3CCCN3CCCNC(=O)c3ccc(Nc4ncc5c(n4)N(C4CCCC4)[C@H](CC)C(=O)N5C)c(OC)c3)nc3c2CCN(c2cccc4cccc(Cl)c24)C3)C[C@@H]1CC#N", "note": "[Compound I-102, N-[3-[(2S)-2-[[7-(8-chloro-1-naphthyl)-4-[(3S)-3-(cyanomethyl)-4-(2-fluoroprop-2-enoyl)piperazin-1-yl]-6,8-dihydro-5H-pyrido[3,4-d]pyrimidin-2-yl]oxymethyl]pyrrolidin-1-yl]propyl]-4-[[(7R)-8-cyclopentyl-7-ethyl-5-methyl-6-oxo-7H-pteridin-2-yl]amino]-3-methoxy-benzamide]", "values": [{"measurement": "IC50", "setting": "KRAS G12C", "result": "100 to 1000", "unit": "nM"}, {"measurement": "GI50", "setting": "HEK293 cells", "result": "500 to 1500", "unit": "nM"}]}, {"smiles": "C=C(F)C(=O)N1CCN(c2nc(OC[C@@H]3CCCN3CCCOCCOCCNC(=O)c3ccc(Nc4ncc5c(n4)N(C4CCCC4)[C@H](CC)C(=O)N5C)c(OC)c3)nc3c2CCN(c2cccc4cccc(Cl)c24)C3)C[C@@H]1CC#N", "note": "[Compound I-103, N-[2-[2-[3-[(2S)-2-1[[7-(8-chloro-1-naphthyl)-4-[(3S)-3-(cyanomethyl)-4-(2-fluoroprop-2-enoyl)piperazin-1-yl]-6,8-dihydro-5H-pyrido1[3,4-d]pyrimidin-2-yl]oxymethyl]pyrrolidin-1-yl]propoxy]ethoxy]ethyl]-4-[1[(7R)-8-cyclopentyl-7-ethyl-5-methyl-6-oxo-7H-pteridin-2-yl]amino]-3-methoxy-benzamide]", "values": [{"measurement": "IC50", "setting": "KRAS G12C", "result": "< 100", "unit": "nM"}, {"measurement": "GI50", "setting": "HEK293 cells", "result": "500 to 1500", "unit": "nM"}]}, {"smiles": "C=C(F)C(=O)N1CCN(c2nc(OC[C@@H]3CCCN3CCCOCCOCCOCCNC(=O)c3ccc(Nc4ncc5c(n4)N(C4CCCC4)[C@H](CC)C(=O)N5C)c(OC)c3)nc3c2CCN(c2cccc4cccc(Cl)c24)C3)C[C@@H]1CC#N", "note": "[Compound I-104, N-[2-[2-[2-[3-[(2S)-2-[[7-(8-chloro-1-naphthyl)-4-[(3S)-3-(cyanomethyl)-4-(2-fluoroprop-2-enoyl)piperazin-1-yl]-6,8-dihydro-5H-pyrido[3,4-d]pyrimidin-2-yl]oxymethyl]pyrrolidin-1-yl]propoxy]ethoxy]ethoxy]ethyl]-4-[[(7R)-8-cyclopentyl-7-ethyl-5-methyl-6-oxo-7H-pteridin-2-yl]amino]-3-methoxy-benzamide]", "values": [{"measurement": "IC50", "setting": "KRAS G12C", "result": "< 100", "unit": "nM"}, {"measurement": "GI50", "setting": "HEK293 cells", "result": "500 to 1500", "unit": "nM"}]}, {"smiles": "C=C(F)C(=O)N1CCN(c2nc(OC[C@@H]3CCCN3CCCOCCOCCOCCOCCNC(=O)c3ccc(Nc4ncc5c(n4)N(C4CCCC4)[C@H](CC)C(=O)N5C)c(OC)c3)nc3c2CCN(c2cccc4cccc(Cl)c24)C3)C[C@@H]1CC#N", "note": "[Compound I-105, N-[2-[2-[2-[2-[3-[(2S)-2-[[7-(8-chloro-1-naphthyl)-4-[(3S)-3-(cyanomethyl)-4-(2-fluoroprop-2-enoyl)piperazin-1-yl]-6,8-dihydro-5H-pyrido[3,4-d]pyrimidin-2-yl]oxymethyl]pyrrolidin-1-yl]propoxy]ethoxy]ethoxy]ethoxy]ethyl]-4-[[(7R)-8-cyclopentyl-7-ethyl-5-methyl-6-oxo-7H-pteridin-2-yl]amino]-3-methoxy-benzamide]", "values": [{"measurement": "IC50", "setting": "KRAS G12C", "result": "< 100", "unit": "nM"}, {"measurement": "GI50", "setting": "HEK293 cells", "result": "500 to 1500", "unit": "nM"}]}]}
